Results: US20250154126A1, “CRYSTALLINE FORM OF SULFUR-CONTAINING ISOINDOLINE DERIVATIVE” (JIANGSU HENGRUI PHARMACEUTICALS CO., LTD., priority 2022, published 2025)

Test system: NCI-H929 xenograft tumor
Assay: Pharmacodynamic test: NCI-H929 xenograft tumor in CB-17 SCID mice
Type: in vivo
Settings: for Number of remaining animals/group: 1 mg/kg qd/11 d, oral
Experimental: This experiment was performed to evaluate the inhibition effect of the compound of Example 1 and the control example CC-92480 on the growth of human multiple myeloma cell NCI-H929 xenograft tumor in CB-17 SCID mice.
Solutions of the compound of Example 1 and the control example CC-92480 were prepared with 5% DMSO+20% PEG400+70% (10% TPGS)+5% (1% HPMC K100LV).
Thirty CB-17 SCID female mice, purchased from Beijing Vital River Laboratory Animal Technology Co., Ltd. (certificate No. 20170011006049, SCXK (Shanghai) 2017-0011), weighing about 19 g at the time of purchase, were bred at 5 mice/cage (in a 12/12 hour light/dark cycle, at a constant temperature of 23±1° C. and humidity of 50%-60%) and had free access to food and water.
After adaptive feeding, the CB-17 SCID mice were grouped as follows:
NCI-H929 cells in a logarithmic growth phase were inoculated subcutaneously into the right flank of 30 female CB-17 SCID mice at 5×10^6 cells/mouse/100 μL (containing […] of Matrigel). After 10 days, when the tumor volume of the tumor-bearing mice reached about 200 mm^3, the mice were randomly divided into 3 groups according to the tumor volume and body weight: vehicle control group, CC-92480-1 mpk, compound of Example 1-1 mpk, with […]. The day of grouping was set as Day 0 (DO), and intragastric administration was performed once a day for 11 days (Table 2). For the tumor-bearing mice, the tumor volume was measured with a vernier caliper and the body weight was measured with a balance twice a week, and the data were recorded.
The tumor volume (V) was calculated as follows: V=1/2×a×b^2, where a and b represent length and width, respectively.
The relative tumor proliferation rate T/C (%)=(T−T0)/(C−C0)×100(%), where T and C are the tumor volume of animals at the end of the experiment in the treatment group and control group, respectively; T0 and C0 are the tumor volume of animals at the beginning of the experiment in the treatment group and control group, respectively. […]

| Compound | Number of remaining animals/group | influence on the body weight of mice (1 mg/kg qd, 11 days, CB-17 SCID mice) |
| --- | --- | --- |
| N#Cc1ccc(N2CCN(Cc3ccc(COc4cccc5c4CN([C@H]4CCC(=O)NC4=O)C5=O)cc3)CC2)c(F)c1 [CC-92480, reference compound] | 7/7 | – |
| N#Cc1ccc(N2CCC(Sc3ccc(COc4cccc5c4CN([C@H]4CCC(=O)NC4=O)C5=O)cn3)CC2)c(F)c1 [Example 1, (S)-4-(4-((5-(((2-(2,6-dioxopiperidin-3-yl)-1-oxoisoindolin-4-yl)oxy)methyl)pyridin-2-yl)thio)piperidin-1-yl)-3-fluorobenzonitrile] | 7/7 | no influence |
